pIC50: −log10 of the molar value.
target: ROCK2 (human) (UniProt O75116); assay: Inhibition of ROCK2 Kinase Activity; details: not given
Sequence (O75116 whole entry, looked up): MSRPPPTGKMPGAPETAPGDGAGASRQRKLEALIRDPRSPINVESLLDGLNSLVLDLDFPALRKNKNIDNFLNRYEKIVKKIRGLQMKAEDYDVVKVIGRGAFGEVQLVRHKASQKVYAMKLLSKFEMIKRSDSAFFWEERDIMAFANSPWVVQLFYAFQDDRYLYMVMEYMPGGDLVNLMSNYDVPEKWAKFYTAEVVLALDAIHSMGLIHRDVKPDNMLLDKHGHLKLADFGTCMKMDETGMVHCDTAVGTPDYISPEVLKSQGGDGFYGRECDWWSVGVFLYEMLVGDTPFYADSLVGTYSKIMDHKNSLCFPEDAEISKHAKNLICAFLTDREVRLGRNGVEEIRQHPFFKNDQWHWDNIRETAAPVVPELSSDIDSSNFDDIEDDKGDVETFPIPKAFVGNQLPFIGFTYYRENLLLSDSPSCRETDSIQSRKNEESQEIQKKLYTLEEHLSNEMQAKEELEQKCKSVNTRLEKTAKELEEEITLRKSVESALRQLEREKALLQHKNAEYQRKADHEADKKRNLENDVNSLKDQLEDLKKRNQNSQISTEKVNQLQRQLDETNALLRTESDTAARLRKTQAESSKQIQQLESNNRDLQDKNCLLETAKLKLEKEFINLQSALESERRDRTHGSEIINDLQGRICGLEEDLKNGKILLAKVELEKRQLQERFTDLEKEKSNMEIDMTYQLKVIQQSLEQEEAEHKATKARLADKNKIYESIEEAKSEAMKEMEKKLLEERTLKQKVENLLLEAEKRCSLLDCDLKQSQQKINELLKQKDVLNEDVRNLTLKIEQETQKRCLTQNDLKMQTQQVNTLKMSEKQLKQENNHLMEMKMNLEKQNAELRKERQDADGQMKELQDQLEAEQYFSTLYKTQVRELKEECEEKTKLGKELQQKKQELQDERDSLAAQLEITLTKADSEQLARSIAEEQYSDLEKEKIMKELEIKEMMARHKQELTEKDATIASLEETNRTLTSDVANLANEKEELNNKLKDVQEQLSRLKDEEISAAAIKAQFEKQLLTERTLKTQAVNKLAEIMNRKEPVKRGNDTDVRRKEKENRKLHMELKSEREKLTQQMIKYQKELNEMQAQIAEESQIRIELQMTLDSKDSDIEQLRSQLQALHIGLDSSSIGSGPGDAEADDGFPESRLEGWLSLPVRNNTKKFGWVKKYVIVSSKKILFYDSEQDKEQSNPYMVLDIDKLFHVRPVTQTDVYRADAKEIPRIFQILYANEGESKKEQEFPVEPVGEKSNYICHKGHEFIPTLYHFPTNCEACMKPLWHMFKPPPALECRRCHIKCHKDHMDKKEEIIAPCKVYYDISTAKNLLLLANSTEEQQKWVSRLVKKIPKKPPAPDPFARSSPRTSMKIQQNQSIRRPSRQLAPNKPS

Row | pIC50 | SMILES
1 | 5.19 | CCCCCCCCN(N)[C@H]1CC[C@H](C(=O)Nc2ccncc2)CC1
2 | 5.72 | C=CC[C@@H](N)[C@H]1CC[C@H](C(=O)Nc2ccncc2)CC1

same assay, conditions: concentration not given here

Row | inhibition [%] | SMILES
3 | 40 | NN(CC1CCCCC1)[C@H]1CC[C@H](C(=O)Nc2ccncc2)CC1
4 | 13 | CC(C)CCN(N)[C@H]1CC[C@@H](C(=O)Nc2ccncc2)CC1
5 | 25 | CC(C)N(N)[C@H]1CC[C@@H](C(=O)Nc2ccncc2)CC1
6 | 63 | C=CC[C@H](N)[C@H]1CC[C@H](C(=O)Nc2ccncc2)CC1
7 | 19 | CCCN(N)[C@H]1CC[C@@H](C(=O)Nc2ccncc2)CC1
8 | 0 | C=CCC(N)[C@H]1CC[C@H](C(=O)Nc2ncnc3[nH]cnc23)CC1 (stereo partly drawn)
9 | 59 | NN(Cc1ccc(OCc2ccccc2)cc1)[C@H]1CC[C@H](C(=O)Nc2ccncc2)CC1
10 | 45 | C=CCC(NC)[C@H]1CC[C@H](C(=O)Nc2ccncc2)CC1 (stereo partly drawn)
11 | 45 | CCCN(N)[C@H]1CC[C@H](C(=O)Nc2ccncc2)CC1
12 | 44 | C=CCC(NCc1ccccc1)[C@H]1CC[C@H](C(=O)Nc2ccncc2)CC1 (stereo partly drawn)

The next lines start with the molecule.

Row | SMILES | inhibition [%]
13 | NN(CCc1ccccc1)[C@H]1CC[C@H](C(=O)Nc2ccncc2)CC1 | 46
14 | NN(Cc1ccccc1)[C@H]1CC[C@@H](C(=O)Nc2ccncc2)CC1 | 32
15 | CCCCCCCCN(N)[C@H]1CC[C@H](C(=O)Nc2ccncc2)CC1 | 53
16 | CN(N)[C@H]1CC[C@@H](C(=O)Nc2ccncc2)CC1 | 33
17 | NN(CC(c1ccccc1)c1ccccc1)[C@H]1CC[C@H](C(=O)Nc2ccncc2)CC1 | 45
18 | CC(C)N(N)[C@H]1CC[C@H](C(=O)Nc2ccncc2)CC1 | 45
19 | NN(Cc1ccccc1)[C@H]1CC[C@H](C(=O)Nc2ccncc2)CC1 | 61
20 | NN(C/C=C/c1ccccc1)[C@H]1CC[C@H](C(=O)Nc2ccncc2)CC1 | 49
21 | CN(N)[C@H]1CC[C@H](C(=O)Nc2ccncc2)CC1 | 63
22 | CC(C)CCN(N)[C@H]1CC[C@H](C(=O)Nc2ccncc2)CC1 | 43
23 | C=CC[C@@H](N)[C@H]1CC[C@H](C(=O)Nc2ccncc2)CC1 | 81
